We go through 6 molecules from BindingDB's records for doi:10.1007/bf00965909 (Biological Research Center of Hungarian Academy of Sciences, 1990).

Assay [1] addresses kappa-type opioid receptor isoform 1 (Xenopus tropicalis, UniProt F7A0F2).
Assay [2] deals with Kappa-type opioid receptor (Rattus norvegicus, UniProt P34975).

“And” between values parts separate entries of the source, which are not always exact repeats. Equal values may be shown once.

Kappa-type opioid receptor, sequence (P34975 whole entry): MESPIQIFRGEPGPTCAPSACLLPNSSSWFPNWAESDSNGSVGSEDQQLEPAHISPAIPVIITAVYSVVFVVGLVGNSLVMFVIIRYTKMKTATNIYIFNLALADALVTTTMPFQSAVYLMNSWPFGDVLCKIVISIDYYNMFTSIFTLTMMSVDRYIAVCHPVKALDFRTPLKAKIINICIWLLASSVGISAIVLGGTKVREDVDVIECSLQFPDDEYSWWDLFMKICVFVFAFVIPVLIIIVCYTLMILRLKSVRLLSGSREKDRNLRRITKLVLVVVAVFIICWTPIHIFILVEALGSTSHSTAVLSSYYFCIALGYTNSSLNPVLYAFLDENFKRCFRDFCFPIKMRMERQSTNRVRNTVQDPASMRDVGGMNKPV
kappa-type opioid receptor isoform 1, sequence (F7A0F2 whole entry, canonical isoform): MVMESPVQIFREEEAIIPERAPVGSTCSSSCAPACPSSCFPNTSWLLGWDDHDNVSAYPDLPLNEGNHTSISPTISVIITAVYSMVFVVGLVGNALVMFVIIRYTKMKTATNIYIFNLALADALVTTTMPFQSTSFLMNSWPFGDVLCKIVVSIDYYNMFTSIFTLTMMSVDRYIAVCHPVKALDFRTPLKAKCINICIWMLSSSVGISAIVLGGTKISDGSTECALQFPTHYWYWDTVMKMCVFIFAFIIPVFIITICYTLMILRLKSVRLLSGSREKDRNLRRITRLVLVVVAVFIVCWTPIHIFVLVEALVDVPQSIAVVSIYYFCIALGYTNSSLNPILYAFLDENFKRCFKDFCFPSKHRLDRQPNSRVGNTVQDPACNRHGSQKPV

In assay [1], `CC1[C@H]2Cc3ccc(O)cc3[C@]1(C)CCN2C[C@@H]1CCCO1` (stereo partly drawn) [(+)-alpha-(1R,5R,9R)-5,9-Dimethyl-2-L-tetrahydrofurfuryl)-2'-hydroxy-6,7-benzomorphan] yielded a Ki of 5400 nM.
The same measure, in the same setting: to `CC1[C@H]2Cc3ccc(O)cc3[C@]1(C)CCN2C[C@H]1CCCO1` (stereo partly drawn) [CAS_57236-85-8] belongs 4.8 nM.
For the molecule `CC[C@H](C)[C@H](NC(=O)[C@H](CCCNC(=N)N)NC(=O)[C@H](CCCNC(=N)N)NC(=O)[C@H](CC(C)C)NC(=O)[C@H](Cc1ccccc1)NC(=O)CNC(=O)CNC(=O)[C@@H](N)Cc1ccc(O)cc1)C(=O)N[C@@H](CCCNC(=N)N)C(=O)N1CCC[C@H]1C(=O)N[C@@H](CCCCN)C(=O)N[C@@H](CC(C)C)C(=O)N[C@@H](CCCCN)C(=O)O` [Dynorphin A (1-13)], the Ki in assay [2] is 57 nM; in assay [1], 12 nM and 3.1 nM.
As to `[N-]=[N+]=N[C@@H]1CC[C@H]2[C@H]3Cc4ccc(O)c5c4[C@@]2(CCN3CC2CC2)[C@@H]1O5` [N-cyclopropylmethylnorazidomorphine], the Ki in assay [2] is 0.1 nM and 0.2 nM and 0.3 nM; in assay [1], 0.1 nM.
For the molecule `C[C@@H](NC(=O)[C@@H](N)Cc1ccc(O)cc1)C(=O)NCC(=O)N(C)[C@@H](Cc1ccccc1)C(=O)NCCO` [[tyrosyl-3,5-3H(N)]-D-Ala2-Mephe4-glyol5-enkephalin], the Ki in assay [1] was 59 nM and 360 nM and 470 nM.
In assay [2], “H-YGGFMTSEKSQTPLVTLFKNAIVKNAHKKGQ-OH [Beta-Endorphin]” yielded a Ki of 2.3 nM.
